# Experimental data published in ChEMBL document CHEMBL1201862, “PubChem BioAssay data set” (2004).
# Activity calls are given as the source filed them.
# Tests used:
# Cytochrome P450 2D6 = Cytochrome P450 2D6 (Homo sapiens, UniProt P10635); assay: qHTS Assay for Inhibitors and Substrates of Cytochrome P450 2D6. [Related pubchem assays: 410 ]; assay type: ADME; conditions: read-out: Potency
# Cytochrome P450 2C9 = Cytochrome P450 2C9 (Homo sapiens, UniProt P11712); conditions: Potency
# Cytochrome P450 2C19 = Cytochrome P450 2C19 (Homo sapiens, UniProt P33261); assay: qHTS Assay for Inhibitors and Substrates of Cytochrome P450 2C19. [Related pubchem assays: 410 ]; assay type: ADME; conditions: read-out: Potency
# Cytochrome P450 3A4 = Cytochrome P450 3A4 (Homo sapiens, UniProt P08684); conditions: Potency;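 further: confirmatory qHTS run detecting inhibitors and substrates of CYP3A4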
# cells [1] = assay type: functional
# [2] = THP-1 cell cytotoxicity, dose response, cytotoxicity control for non-replicating M. tuberculosis project (AID 489025); assay type: functional
# [3] = microbe, parasite or virus in culture; assay type: functional; conditions: Mycobacterium tuberculosis
# [4] = M. tuberculosis growth inhibition, HTS (AID 449762); assay type: functional
# [5] = biological target: Aryl hydrocarbon receptor (Homo sapiens, UniProt P35869); assay: Luminescence-based cell-based high throughput dose response assay for activators of the Aryl Hydrocarbon Receptor (AHR). [Related pubchem assays: 2796 (Primary screen (AHR activators in singlicate)), 2845 (Confirmation screen (AHR activators in triplicate)), 434939 (Counterscreen (PXR activators in triplicate)), 2804 (Summary (AHR activators))]; assay type: ADME
# [6] = biological target: Solute carrier family 12 member 2/member 5 (Homo sapiens, UniProt P55011+Q9H2X9); assay: KCC2 and NKCC1 inhibition by rubidium flux, cell-based, NKCC1 counter-screen (AID 1734); assay type: functional, HEK293
# [7] = biological target: T1, Tyrosine-protein phosphatase non-receptor type 7 (Homo sapiens, UniProt P35236); assay: inhibitors of human HePTP phosphatase, […], biochemical, absorbance, leukemia target (AID 521); assay type: functional
# T1 sequence (P35236 whole entry): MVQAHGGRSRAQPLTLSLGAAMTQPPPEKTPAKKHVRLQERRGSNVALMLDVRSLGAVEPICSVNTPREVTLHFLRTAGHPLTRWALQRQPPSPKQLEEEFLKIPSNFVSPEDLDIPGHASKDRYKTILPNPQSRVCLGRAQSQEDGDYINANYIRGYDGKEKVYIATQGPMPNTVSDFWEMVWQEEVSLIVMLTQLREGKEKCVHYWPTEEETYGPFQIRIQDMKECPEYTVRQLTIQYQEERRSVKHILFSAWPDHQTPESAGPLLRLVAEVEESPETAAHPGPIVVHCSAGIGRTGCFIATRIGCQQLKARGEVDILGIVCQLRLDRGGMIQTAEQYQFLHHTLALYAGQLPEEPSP
# NADPH oxidase 1 = biological target: T2, NADPH oxidase 1 (Homo sapiens, UniProt Q9Y5S8); assay: Late-stage luminescence-based cell-based dose response assay to identify inhibitors of NADPH oxidase 1 (NOX1): Synthesized analogs 3.; assay type: functional
# T2 sequence (Q9Y5S8 whole entry): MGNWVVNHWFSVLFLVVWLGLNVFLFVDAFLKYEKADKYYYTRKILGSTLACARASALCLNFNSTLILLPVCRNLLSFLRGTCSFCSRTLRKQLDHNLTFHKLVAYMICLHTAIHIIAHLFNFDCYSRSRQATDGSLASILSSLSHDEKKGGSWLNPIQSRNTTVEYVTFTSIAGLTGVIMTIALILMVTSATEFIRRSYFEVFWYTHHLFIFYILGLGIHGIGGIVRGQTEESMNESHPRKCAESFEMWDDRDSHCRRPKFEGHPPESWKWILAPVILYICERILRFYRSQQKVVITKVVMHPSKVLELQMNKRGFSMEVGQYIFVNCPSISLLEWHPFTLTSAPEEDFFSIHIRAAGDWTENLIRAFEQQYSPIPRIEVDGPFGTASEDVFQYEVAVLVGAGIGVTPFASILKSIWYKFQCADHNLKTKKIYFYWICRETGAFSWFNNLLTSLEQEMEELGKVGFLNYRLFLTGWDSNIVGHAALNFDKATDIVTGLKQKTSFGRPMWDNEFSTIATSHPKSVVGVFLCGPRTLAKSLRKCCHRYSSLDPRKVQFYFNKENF
# [8] = biological target: Voltage-gated inwardly rectifying potassium channel KCNH2 (Homo sapiens, UniProt Q12809); assay: hERG protection from proarrhythmic block, potency, dose response, cell-based, thallium flux (AID 2121); assay type: ADME
# 14-3-3 protein gamma = 14-3-3 protein gamma (Homo sapiens, UniProt P61981); assay: modulators of 14-3-3 gamma client binding – dose response (AID 711); assay type: functional
# [9] = Luminescence-based dose response cell-based high throughput screening assay for cytotoxic compounds using the IEC-6 intestinal epithelial cell line. [Related pubchem assays: 1858 (Summary AID.), 1825 (Counterscreen.), 1907 (Confirmation screen.)]; assay type: functional
# Paired box protein Pax-8 = Paired box protein Pax-8 (Homo sapiens, UniProt Q06710); assay: inhibitors of PAX8-driven TPO luciferase reporter, dose response, RMG-I cells, cherry-pick (AID 687027); assay type: functional, cell-based;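 further: luciferase reporter driven by Pax8 target thyroperoxidase promoter measured by SteadyGlo luminescence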
# [10] = biological target: T3, High affinity choline transporter 1 (Homo sapiens, UniProt Q9GZV3); assay: CHT inhibitors, dose response, cell-based, 5-point CRC, membrane potential dye (AID 504840); assay type: functional
# T3 sequence (Q9GZV3 whole entry): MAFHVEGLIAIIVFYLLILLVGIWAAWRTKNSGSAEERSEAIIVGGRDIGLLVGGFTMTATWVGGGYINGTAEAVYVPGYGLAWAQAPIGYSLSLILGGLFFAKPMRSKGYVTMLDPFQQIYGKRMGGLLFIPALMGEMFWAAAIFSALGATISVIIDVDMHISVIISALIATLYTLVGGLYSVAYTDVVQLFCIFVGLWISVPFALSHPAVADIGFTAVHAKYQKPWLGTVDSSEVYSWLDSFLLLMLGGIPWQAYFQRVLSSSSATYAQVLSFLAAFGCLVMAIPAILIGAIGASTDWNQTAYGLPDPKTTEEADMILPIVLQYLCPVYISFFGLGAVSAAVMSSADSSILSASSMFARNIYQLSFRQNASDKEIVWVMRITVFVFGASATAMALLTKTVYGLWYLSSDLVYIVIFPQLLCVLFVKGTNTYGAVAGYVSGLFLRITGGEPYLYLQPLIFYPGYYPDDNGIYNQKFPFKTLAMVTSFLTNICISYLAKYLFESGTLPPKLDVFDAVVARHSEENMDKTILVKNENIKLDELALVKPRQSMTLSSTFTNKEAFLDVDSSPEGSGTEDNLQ
# [11] = Luminescence Cell-Based Dose Response HTS to Identify Inhibitors of 5'UTR Stem-Loop Driven Prion Protein mRNA Translation in H4 Neuroglioblastoma Cells. [Related pubchem assays: 1827 (Project Summary), 1813 (Primary HTS)]; assay type: functional
# cells [12] = assay: cells
# [13] = biological target: T3, High affinity choline transporter 1; assay: CHT inhibitors, dose response, cell-based, 10-point CRC, membrane potential dye (AID 588401); assay type: functional;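 further: membrane potential dye fluorescence of choline-evoked depolarization via CHT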
# Major prion protein = Major prion protein (Homo sapiens, UniProt P04156); assay type: functional, cell-based
# [14] = inhibitors of firefly luciferase expression or activity, dose response, H4 neuroglioma cells, luminescence (AID 1990); assay type: functional, cell-based
# [15] = inhibitors of SNCA 5'UTR-driven translation, confirmation, luminescence, H4 neuroglioblastoma cells, dose confirmation (AID 2454); assay type: functional, cell-based;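 further: H4 neuroglioblastoma cells carrying an alpha-synuclein 5'UTR luciferase reporter; potency for inhibition of the luciferase signal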
# [16] = biological target: Photoreceptor-specific nuclear receptor (Homo sapiens, UniProt Q9Y5X4); assay type: functional, cell-based;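 further: CHO-S cells with Gal4-NCOR and VP16-NR2E3 two-hybrid luciferase reporter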
# INS1 = assay: beta cell apoptosis inhibitors, cytokine rescue, dose response, luminescence, retest (AID 449756); assay type: functional, cell-based; conditions: Rattus norvegicus;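 further: cell death triggered by IL-1 beta plus TNF-alpha plus IFN-gamma mixture; protective hits raise ATP signal compared with cytokine alone wells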
# Galanin receptor type 2 = Galanin receptor type 2 (Homo sapiens, UniProt O43603); assay: Dose Response cell-based high-throughput screening assay to identify antagonists of galanin receptor 2 (GALR2). [Related pubchem assays: 828, 866 ]; assay type: functional
# BJ [17] = assay: cells; assay type: functional, cell-based, Homo sapiens; conditions: Homo sapiens, BJ
# [18] = luciferase reporter signal reduction – luminescence, H4-C neuroglioblastoma cells, dose response (AID 2458); assay type: functional, cell-based;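 further: H4 neuroglioblastoma cells stably carrying a luciferase reporter gene fusion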
# [19] = cytotoxicity in HEK-293T cells, dose response, cytotoxicity control for BCR NF-kB inhibitor project, luminescence, B-cell screen hits (AID 489021); assay type: functional, cell-based;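 further: HEK-293T cells carrying an NF-kB luciferase reporter; cells exposed to compound for about 14 hours before viability readout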
# cells [20] = assay type: functional, cell-based
# BJ [21] = assay: cytotoxicity toward BJ-TERT-LT-ST fibroblasts, dose response, cell-based, RAS-independent, luminescence (AID 1935); assay type: functional, Homo sapiens; conditions: Homo sapiens, BJ;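 further: BJ fibroblasts immortalized with TERT plus LT and ST oncogenes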
# [22] = inhibitors of SNCA 5'UTR-driven reporter translation, confirmation, H4 neuroglioma cells, luminescence (AID 1988); assay type: functional, cell-based
structure (smiles),measurement,setting,value
O=c1c(O)c(-c2ccc(O)c(O)c2)oc2ccccc12,AC50,Cytochrome P450 2D6,31.6 µM (inconclusive)
same,AC50,Cytochrome P450 2C9,31.6 µM (inconclusive)
same,AC50,Cytochrome P450 2C19,25.1 µM (inconclusive)
same,AC50,Cytochrome P450 3A4,31.6 µM (inconclusive)
CCCCNC(=O)Nc1nnc(-c2ccc(OCC)cc2)o1,IC50,cells [1],26.2 µM (active)
same,CC50,[2],> 40 µM (active)
same,CC50,[3],> 40 µM (active)
same,IC50,[4],> 100 µM (active)
Cc1nccc(-c2ccc(-n3cnc4ccccc43)cc2)n1,EC50,[5],> 1.13 µM (active)
Cc1nc(CC(=O)Nc2nc(-c3ccccc3)cs2)cs1,IC50,[6],79 µM (active)
Cc1cc(C)cc(OCCCCCNCCO)c1,IC50,[7],> 100 µM (not active)
CN1c2ccccc2Sc2cc(C(=O)c3ccc(N=[N+]=[N-])cc3)ccc21,IC50,NADPH oxidase 1,> 20 µM (not active)
COc1ccc(C(=O)CC(=O)C(=O)Nc2ccc(Cl)cc2)cc1,EC50,[8],1.74 µM (active)
CCOC(=O)N1CCC(NC(=O)CSCc2nc(-c3ccc(OC)c(OC)c3)oc2C)CC1,IC50,14-3-3 protein gamma,> 50 µM (not active)
CC1CCC/C=C/C2CC(O)CC2C(O)/C=C/C(=O)O1 (configuration not stated),IC50,[9],0.353 µM (active)
same,AC50,Paired box protein Pax-8,< 0.26 µM (active)
same,IC50,[10],1.87 µM (active)
same,EC50,[11],< 0.1 µM (active)
same,IC50,cells [12],> 138 µM (inactive)
same,IC50,[13],3.03 µM (active)
same,IC50,Major prion protein,3.43 µM (active)
same,EC50,[14],< 0.1 µM (active)
same,EC50,[15],0.071 µM (active)
same,IC50,[16],0.714 µM (active)
same,AC50,INS1,0.74 µM (active)
same,IC50,Galanin receptor type 2,> 42 µM (not active)
same,EC50,BJ [17],> 150 µM (inconclusive)
same,EC50,[18],0.078 µM (active)
same,IC50,[19],> 80 µM (inactive)
same,EC50,cells [20],0.078 µM (active)
same,EC50,BJ [21],< 0.12 µM (active)
same,EC50,[22],< 0.1 µM (active)
